Data from patent publication US5124167A, “Anti-oxidant compositions containing fat” (Bar-Ilan University, priority 1990, dated 1992).

System: skin of adult mice (level of peroxides)
Assay: Peroxide level (TBA test) in skin of adult mice after cream application
Format: in vivo
Settings: 0.1% dissolved in Oil of Olay, similar experiments
Method: The plants that may be utilized as a source of the water soluble extract include the plant tissues of selected species such as the stems and green leaves selected from the group consisting of Spinacia, Trifolium, Medicago, Zea, Penicillaria, Algae, and Nicotiana. Other plants may be utilized if an aqueous extract of the green leaves provide an antioxidant effect when it is applied to skin. The antioxidant effect is determined by the thiobarbituric acid (TBA) test. This test is described in Food Res. V. 23, P 620 (1958). Generally the level of peroxide in the skin may be determined by assay of a sample of untreated skin which is peeled from a test animal. A preweighed sample of from 10 to 50 mg is homogenized in 0.2 M phosphate buffer pH 6.5 and centrifuged. The supernatant is collected and the peroxide level is determined using the TBA test. A sample of skin from the same animal which has been treated according to the invention is also peeled and the peroxide level is determined. A reduction in the peroxide level of about 35% when an antioxidant obtained from a plant is applied as 0.5% w/w dispersion in a petrolatum base is the criteria for determining if a given plant extract is useful according to the present invention.
Samples of creams and appropriate controls were applied to mice or rat skin for a fixed period. The application was done once a day. Experiments were terminated by killing the animals, peeling the skin and freezing it in liquid nitrogen. Samples of the frozen skin were homogenized in 0.2M phosphate buffer, pH 6.5. After centrifugation the supernatant was collected and analyzed for the peroxide value using the TBA (Thiobarbituric acid) test as described by Sinnhuber, et al. Food Res. V. 23, p 620 (1958).
In these experiments adult mice (2months old) were treated as described in Example 2. The grown mice were shaved before applying the creams to the skin.
In this experiment the antioxidant was dissolved in Oil of Olay. Mice were sacrificed after 21 days.

SMILES | effect on the level of peroxides in the skin
COc1ccc(O)c(C(C)(C)C)c1 [BHA, butylated hydroxy anisole] | no reduction of the peroxides was observed
Cc1c(C)c2c(c(C)c1O)CCC(C)(CCCC(C)CCCC(C)CCCC(C)C)O2 (stereo not drawn) [alpha tocopherol] | no reduction of the peroxides was observed
Cc1cc(C(C)(C)C)c(O)c(C(C)(C)C)c1 [BHT, butylated hydroxy toluene] | no reduction of the peroxides was observed
